# Laboratory results as given in patent US20240398831A1, “COMPOSITIONS COMPRISING SMALL MOLECULE REGULATORS OF TUMOR IMMUNITY AND METHODS OF USING SAME” (Duke University, priority 2021, published 2024).
# Read-outs that look alike come from different tables or passages of the source.
# Experiments:
# [1] = test system: B16F10 tumors; experiment: B16F10 syngeneic melanoma tumor model in ovariectomized mice (tumor growth, flow cytometry); type: in vivo, mouse
# Description: (§1) Tumor models and cells. The mouse B16F10 and Yumm5.2 cell lines were purchased from American Type Culture Collection (ATCC, Manassas, VA). The mouse melanoma cell line BPD6 was established from iBP as described elsewhere (Zhao et al., Immunity 2018, 48, 147-160). B16F10 and BPD6 cells were maintained in Dulbecco's Modified Eagle's Medium (DMEM) supplemented with 8% fetal bovine serum (FBS), 0.1 mM non-essential amino acids (NEAA) and 1 mM sodium pyruvate. YuMM5.2 cells were maintained in DMEM/F12 media supplemented with 10% FBS. The cells were replated 3 times/week at a confluency of 1:10 and were kept in a 37° C. incubator at 5% CO2. For subcutaneous tumor models B16F10 (5×10^4 or 1×10^5), YuMM5.2 (5×10^5), and BPD6 (5×10^5) cells were injected into the right flank of the mice. For iBP mice, tumors were induced with a single intradermal dose of 4-hydroxytamoxifen in DMSO (150 μg/mouse). Tumors were measured thrice weekly using an electronic caliper. Tumor volumes were calculated by the formula V=L×(W×W)/2. For iBP mouse tumors, volumes were calculated by the formula V=L×B×H. For tumor growth rate studies mice were euthanized when the tumors reached a maximum size of 2000 mm^3.
# (§2) Ovarlectomy and subcutaneous pellet Insertion. Ovariectomy was performed as previously described (Nelson et al., Science 2013, 342, 1094-1098). Eight days prior to tumor inoculation, 7 weeks old C57BL/6J or 5 weeks old (iBP) female mice were subjected to ovariectomy or sham surgery. Mice were anesthetized in an inhalation chamber (2% Isoflurane) and maintained in half the dose of isoflurane (1%) via nose cone throughout the surgical process. Prior to surgery, mice were administered a 5 mg/kg dose of carprofen subcutaneously. The area below the ribs was shaved with an electronic razor and the skin was sterilized by rubbing with betadine and alcohol (3× alternating). A horizontal incision was made through the skin above the ovary fat pad, followed by a vertical incision through the abdominal muscle wall. The ovary was externalized and removed using a cauterizing scissors (or returned if sham). Fat pad was replaced, and muscle walls were opposed and sutured (1-2 stitches). Following suturing, 1 drop of bupivacaine (0.25%) was added on top of the incision site. The skin was opposed, and a wound clip was placed on the incision site. This was repeated for the other ovary. The mouse was then removed from anesthesia and kept in a clean cage and monitored until conscious. The mice were monitored for recovery for 10 days.
# (§3) Single cell isolation from tumors. Tumors were isolated, minced on a petri dish in media (DMEM+5% FBS), and then enzymatically digested by the addition of 100 μg/mL DNase I (D5025-150KU, Sigma-Aldrich) and 1 mg/mL collagenase (Collagenase A, Cat #10103586001, Sigma-Aldrich) for 30 mins-45 mins. For iBP models, isolated tumors were sliced into large chunks and subjected to mechanical digestion in a gentleMACS Dissociator for 30 seconds twice. Following this, tumors were digested with an enzyme cocktail containing DNase I, collagenase, and hyaluronidase (100 μg/mL) (H6254, Sigma-Aldrich) for 40 mins following a second round of mechanical digestion for 30 seconds (twice). The cells were then filtered through a 40 μm strainer to produce single cell suspensions and the enzymes were diluted by addition of additional media then spun down to remove media. Red blood cells were lysed with the addition of ACK lysis buffer (Cat #A1049201. ThermoFisher Scientific) for 4 mins at room temperature. Following red blood cell lysis, cells were washed with PBS before proceeding to flow cytometry staining or magnetic bead-based isolation.
# (§4) Flow cytometry staining. Single cells suspensions (10^6 cells in 50 μL) were incubated with Live/dead fixable dead cell stain in PBS for 10 mins at 4° C. Cells were spun down at 1000×g and were incubated with anti-CD16/32 (Catalog #14-0161-85, ThermoFisher Scientific) in flow buffer (10 gms BSA in 1 L PBS+sodium azide) for 15 mins. […]
# [2] = test system: YuMM5.2 tumors; type: in vivo
# Description: as §1, §2, §3, §4
# [3] = test system: YuMM5.2 cells; experiment: Quantitative PCR of Wnt5A-β-catenin targets in melanoma tumor cells; type: cell-based, mouse
# [4] = BMDM from Esr1^f/f, LysMCre versus Esr1^f/f
# [5] = E2 vs placebo, ovariectomized C57BL/6J
# [6] = Esr1^f/f and LysMCre control mice
# [7] = Esr1^f/f, LysMCre mice (myeloid ERα knockout)
# [8] = E2 vs placebo, ex vivo PMA and ionomycin 4 hr
# [9] = fulvestrant 25 mg/kg, E2 supplemented mice
compound,measurement,setting,value
17β-estradiol [E2],"tumor promoting effects of E2, tumor cells co-mixed with BMDM (1:1)",[1]; [4],significantly compromised
same,tumor growth,[1]; [5],significantly increased
same,tumor growth,[1]; [6],increased
same,tumor growth,[1]; [7],not evident
same,infiltration of immune cells (CD45+),"[1]; flow cytometry, E2 vs placebo",not impacted by treatment
same,percentage of Ly6C+/Ly6G+ MDSCs in tumors,"[1]; flow cytometry, E2 vs placebo",no changes
same,ratio of intratumoral M1 (MHCII^hi CD206−) to M2 (MHCII^lo CD206+/hi) macrophages,"[1]; flow cytometry, E2 vs placebo",decreases
same,"tumor promoting effects of E2, tumor cells co-mixed with BMDM (1:1)",[2]; [4],significantly compromised
same,number of PD1+CD8+ T cells (exhausted T cells),[2]; E2 treatment,increased
same,Granzyme B expression in CD8+ TILs,[2]; [8],reduced expression
same,IFNγ in CD8+ TILs,[2]; [8],reduced expression
same,PD1 expression on CD8+ TILs,[2]; [8],significantly more
same,activation markers CD44 and CD69 on CD8+ TILs,[2]; [8],reduced expression
same,tumor growth,[2]; [5],significantly increased
same,infiltration of CD4+ FOXP3+ regulatory T cell subsets,"[2]; E2 vs placebo, FIGS. 16D-16E B16F10 and YuMM5.2",not observed
same,tumor growth,[2]; [6],increased
same,tumor growth,[2]; [7],not evident
same,percentage of Ly6C+/Ly6G+ MDSCs in tumors,"[2]; flow cytometry, E2 vs placebo",no changes
same,M1 (proinflammatory macrophages) in tumor infiltrating immune cells,"[2]; flow cytometry, Esr1^f/f animals",decrease
same,expression of WNT5A-β-catenin targets,[3]; E2 (1 nM),did not change
C[C@]12CC[C@@H]3c4ccc(O)cc4C[C@@H](CCCCCCCCC[S+]([O-])CCCC(F)(F)C(F)(F)F)[C@H]3[C@@H]1CC[C@@H]2O (some centres unmarked) [fulvestrant],tumor growth,[1]; [9],significantly reduced
same,inflammatory macrophages (MHCII^hi CD206−),[2]; E2 treated mice co-treated with fulvestrant,increase
same,tumor growth,[2]; [9],significantly reduced
same,number of PD1+CD8+ T cells (exhausted T cells),[2]; fulvestrant treatment of E2 treated mice,decrease
same,"cytotoxic capabilities of tumor infiltrating T cells, Granzyme B (GZMB) expression","[2]; mouse, in vivo",increase
same,expression of WNT5A-β-catenin targets,[3]; E2 (1 nM)+fulvestrant (100 nM),did not change
